Assay results taken from patent publication US9180107B2 (NANOPHARMACEUTICALS LLC, priority 2009, dated 2015).

Tests used:
[1] = system: Human adenoid cystic carcinoma TGS112T cells; experiment: [3H]-thymidine incorporation; assay type: cell-based
Protocol: TGS112T cells were seeded in 24-well trays and exposed to 10% hormone-depleted FBS-supplemented medium for 2 d, then treated with 0.25% hormone-depleted FBS-supplemented medium prior to starting the experiments. Aliquots of cells were treated with T4, tetrac or nano-tetrac as indicated, as well as 1 μCi [^3H]-thymidine (final concentration, 13 nM) for 24 h. Cells were then washed twice with cold PBS. TCA (5%, 1 mL) was added and the plate was held at 4° C. for 30 min. The precipitate was washed twice with cold ethanol; 2% SDS (1 mL) was added to each well and the TCA-precipitable radioactivity was quantitated in a liquid scintillation counter.
(§1) Human adenoid cystic carcinoma TGS112T cells were cultured in medium that contained 0.25% hormone-stripped serum for 2 d and then treated with 10^−7 M tetrac or nano-tetrac for 30 min prior institution of 10^−7 M T4 treatment for 24 h. Nuclear proteins were separated by SDS-PAGE followed by western blot analysis with proliferating-cell nuclear antigen (PCNA) antibody. Thyroid hormone-induced PCNA accumulation was inhibited by tetrac. (See FIG. 6A). […] (See FIG. 6A). Inhibition of thyroid hormone-induced proliferation was confirmed by inhibition by tetrac and nano-tetrac of thyroid hormone-induced accumulation and [^3H]-thymidine incorporation. (See FIG. 6B). […] (See FIG. 6B). […] The effect of nano-tetrac and tetrac on cell proliferation was examined by counting TGS112T cells which were treated daily with 10^−6 M tetrac or 10^−6 M nano-tetrac. […] (See FIG. 6C).

[2] = Turnover rate (stability) of tetrac in the culture system; assay type: physicochemical
Protocol: In LC/MS/MS experiments, medium samples (20 μL) were injected onto an HP 1100 series HPLC system (Agilent Technologies, Palo Alto, Calif., USA), equipped with a narrow-bore column Zorbax Eclipse XDB-C18 (5 μm, 150×2.1 mm; Agilent). Separation was performed using a mobile phase of 0.1% (v/v) acetic acid (A) and 100% acetonitrile (B), with a linear gradient of 20-60% B over 25 min. Flow rate was maintained at 0.2 mL min^−1 and elution was monitored by a diode array detector (200-600 nm). The LC effluent was then introduced into a turbo ion-spray source on a Q/STAR-XL quadruple/time-of-flight (TOF) hybrid mass spectrometer (Applied Biosystems, Foster City, Calif., USA). Negative ESI mass spectra were acquired over the range from m/z 100 to 400. The electrospray voltage was set at −4.5 kV and the source temperature was maintained at 475° C. […]
Human glioblastoma U87MG cells were treated with different concentrations of tetrac (10^−9-10^−5M) for 7 d and tetrac was replenished daily. The turnover rate of tetrac in the culture system was measured. Tetrac detected was 75% of the original concentration after 24 h incubation in medium with 10% FBS in the absence of cells at both room temperature and 37° C. […]

[3] = system: monkey kidney epithelial CV-1 cells; experiment: Proliferation of non-malignant cells; assay type: cell-based, African green monkey; conditions: 10^−6M daily for 7 days
Protocol: FIG. 9 is a series of graphs showing the comparison of nano-tetrac and tetrac on cell proliferation in non-malignant cells. CV-1 cells (FIG. 9A) and 293 T cells (FIG. 9B) were treated daily with 10^−6 M tetrac or nano-tetrac. Cells were harvested at the time points indicated. Total cell numbers taken after each treatment were used as an indicator for tetrac- or nano-tetrac-induced anti-proliferation.
In order to confirm that tetrac and nano-tetrac only suppress cell proliferation in cancer cells, tetrac and nano-tetrac were also examined for potential anti-proliferative effects on immortalized non-malignant cells, using monkey kidney epithelial CV-1 cells and human embryonic kidney 293T cells. The cells were treated daily with either 10^−6M tetrac or 10^−6M nano-tetrac for 7 days, then were harvested, counted and examined microscopically.

[4] = system: Human adenoid cystic carcinoma TGS112T cells; experiment: PCNA western blot (thyroid hormone-induced proliferation); assay type: cell-based
From the text: The techniques have been described in a number of publications. (See Davis et al., 2006. Cancer Res. 66:7270-7275; Lin et al., 2007. Steroids. 72:180-187; Lin et al., 2008. Carcinogenesis. 29:62-69; and Davis et al., 2004. Circ Res. 94:1500-1506, each of which is herein incorporated by reference in its entirety). Nucleoproteins were separated on discontinuous SDS-PAGE (9% gels) and the proteins transferred by electroblotting to nitrocellulose membranes (Millipore, Bedford, Mass.). After blocking with 5% milk in Tris-buffered saline containing 0.1% Tween, the membranes were incubated with selected primary antibodies overnight. The secondary antibodies were either goat anti-rabbit IgG (1:1000, Dako, Carpenteria, Calif.) or rabbit anti-mouse IgG (1:1000, Dako), depending upon the origin of the primary antibody. Immunoreactive proteins were then detected by chemiluminescence.
as §1

Compound: O=C(O)Cc1cc(I)c(Oc2cc(I)c(O)c(I)c2)c(I)c1 [tetrac, Tetraiodothyroacetic acid]
- reduction of T4-induced thymidine incorporation ([1]; 10^−7 M with 10^−7 M T4, 24 h): 5 fold
- effect of agent alone on thymidine incorporation ([1]; 10^−7 M, 24 h): stimulated thymidine incorporation
- Tetrac detected, % of the original concentration ([2]; 24 h incubation in medium with 10% FBS, absence of cells, room temperature and 37° C.): 75%
- tetrac decay ([2]; incubated with cell cultures at 37° C.): 12%
- change in cell numbers and morphology vs untreated control [3]: no significant change
- Thyroid hormone-induced PCNA accumulation ([4]; 10^−7 M tetrac, 10^−7 M T4, 24 h): inhibited
- Proliferation of TGS112T cells (agent alone) ([4]; 10^−7 M, 24 h): little effect alone
